A short description of data set [1]: Hydrophobicity, log P of the compound in octanol-water by shaking-flask method. Type of data set: physicochemical.
In data set [2] the test system is Periplaneta americana. The experiment in a line: Toxic effect in Periplaneta americana (American cockroach) assessed as paralyzed insects after 24 hr of abdomen compound injection by insecticidal assay. Type of data set: functional.
For data set [3], the target named is T1, Nicotinic acetylcholine receptor alpha8 subunit (Periplaneta americana) (UniProt H6TY12).
T1 sequence (whole entry): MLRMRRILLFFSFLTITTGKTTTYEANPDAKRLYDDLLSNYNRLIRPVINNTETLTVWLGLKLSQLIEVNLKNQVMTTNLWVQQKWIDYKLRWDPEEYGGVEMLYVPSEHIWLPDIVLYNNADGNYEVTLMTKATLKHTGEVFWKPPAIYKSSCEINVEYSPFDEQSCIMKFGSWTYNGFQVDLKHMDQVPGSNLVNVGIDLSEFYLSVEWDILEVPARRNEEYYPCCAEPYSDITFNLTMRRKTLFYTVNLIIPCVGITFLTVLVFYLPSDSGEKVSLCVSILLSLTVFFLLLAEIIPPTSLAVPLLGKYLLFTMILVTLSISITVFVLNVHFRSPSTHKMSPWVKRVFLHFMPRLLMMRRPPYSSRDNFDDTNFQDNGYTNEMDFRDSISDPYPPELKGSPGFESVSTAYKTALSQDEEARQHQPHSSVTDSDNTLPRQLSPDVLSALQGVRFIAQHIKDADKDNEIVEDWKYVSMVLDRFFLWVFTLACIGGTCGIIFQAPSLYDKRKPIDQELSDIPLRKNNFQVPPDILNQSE
The experiment in a line: Neuroblocking activity in Periplaneta americana (American cockroach) nicotinic acetylcholine receptor in abdominal fifth and sixth ganglia nerve assessed as neuroblocking concentration by neurophysiological test.

`CN1CCN(Cc2ccc(Cl)nc2)/C1=N/[N+](=O)[O-]` showed a logP in data set [1] of -0.07. Further, in data set [2], the “log(1/MLD)” value was found to be 8.53. Besides, the log(1/BC) in data set [3] was determined as 3.81.

In data set [1], `CN1CCN(Cc2ccc(Cl)nc2)/C1=C/[N+](=O)[O-]` returned a logP of -0.84. The “log(1/MLD)” value in data set [2] turned out to be 7.77. Besides, in data set [3], the log(1/BC) is 3.84.

As to `O=[N+]([O-])/C=C1\SCCN1Cc1ccc(Cl)nc1`, the logP in data set [1] was determined as 0.47. Besides, in data set [2], the “log(1/MLD)” value is recorded as 9.76. Also, the log(1/BC) in data set [3] was found to be 6.19.

On to `O=[N+]([O-])/N=C1\NCCN1Cc1cnc(Cl)s1` [IMIDACLOTHIZ], for which the logP in data set [1] is 0.61. In data set [2], the “log(1/MLD)” value turned out to be 8.42. In addition, in data set [3], the log(1/BC) was 5.97.

In data set [1], `O=[N+]([O-])/N=c1\[nH]ccn1Cc1cnc(Cl)s1` displayed a log partition coefficient (logP) of 0.27. The “log(1/MLD)” value in data set [2] is 8.12. The log(1/BC) in data set [3] stood at 4.61.

Regarding `O=[N+]([O-])/N=c1\ccccn1Cc1cnc(Cl)s1`, in data set [1], the logP amounted to 0.67. Besides, in data set [2], the “log(1/MLD)” value turned out to be 8.92. Besides, the log(1/BC) in data set [3] turned out to be 5.75.

`O=[N+]([O-])/N=c1\ccccn1Cc1ccc(Cl)nc1` showed a lipophilicity (logP) in data set [1] of 0.51. Besides, the “log(1/MLD)” value in data set [2] is recorded as 8.88. For the same compound, in data set [3], the log(1/BC) came to 5.09.

For `O=[N+]([O-])/C=C1\CCCN1Cc1cnc(Cl)s1`, the “log(1/MLD)” value in data set [2] is recorded as 8.96. Further, the log(1/BC) in data set [3] worked out at 6.31.

On to `O=[N+]([O-])/N=C1\SCCN1Cc1cnc(Cl)s1`, for which the logP in data set [1] was determined as 0.8. Also, the “log(1/MLD)” value in data set [2] is given as 7.42. Besides, in data set [3], the log(1/BC) came to 6.

Regarding `O=[N+]([O-])/N=C1\NCCN1Cc1ccc(Cl)nc1` [IMIDACLOPRID], the “log(1/MLD)” value in data set [2] was 8.96. The log(1/BC) in data set [3] was 5.64.

In data set [1], `O=[N+]([O-])/N=c1\sccn1Cc1ccc(Cl)nc1` showed a lipophilicity (logP) of 0.53. Moreover, the “log(1/MLD)” value in data set [2] turned out to be 8.85. The log(1/BC) in data set [3] came to 5.68.

As to `O=[N+]([O-])NC1=NCCN1Cc1ccc(Cl)nc1` [IMIDACLOPRID], the logP in data set [1] was determined as 0.53.

With `O=[N+]([O-])Nc1nccn1Cc1ccc(Cl)nc1` [DEHYDROIMIDACLOPRID], in data set [1], the logP was found to be 0.33. The “log(1/MLD)” value in data set [2] is listed as 7.72. In addition, the log(1/BC) in data set [3] worked out at 4.31.

The compound `O=[N+]([O-])/N=C1\NCCCN1Cc1ccc(Cl)nc1` returned a logP in data set [1] of 0.57. In addition, the “log(1/MLD)” value in data set [2] stood at 8.22. The log(1/BC) in data set [3] is 5.35.

`O=[N+]([O-])/C=C1\NCCN1Cc1ccc(Cl)nc1`: in data set [1], the lipophilicity (logP) is -0.18. In addition, in data set [2], the “log(1/MLD)” value is on record as 9.19. Also, the log(1/BC) in data set [3] stood at 5.02.

On to `O=[N+]([O-])/N=c1\sccn1Cc1cnc(Cl)s1`, for which, in data set [1], the log partition coefficient (logP) is 0.96. For the same compound, the “log(1/MLD)” value in data set [2] amounted to 7.85. Besides, the log(1/BC) in data set [3] was found to be 5.79.

In data set [1], `O=[N+]([O-])/C=C1\CCCN1Cc1ccc(Cl)nc1` came in with a logP of 0.45. Further, the “log(1/MLD)” value in data set [2] is on record as 9.84. In addition, the log(1/BC) in data set [3] was determined as 6.43.

For the compound `O=[N+]([O-])/C=C1\NCCN1Cc1cnc(Cl)s1`, the logP in data set [1] was 0.03. In addition, in data set [2], the “log(1/MLD)” value is reported as 9.34. In addition, in data set [3], the log(1/BC) is 5.73.
